Assay results published in ChEMBL document CHEMBL4368855, “Novel tricyclic glycal-based TRIB1 inducers that reprogram LDL metabolism in hepatic cells” (Medchemcomm, 2018).
In brackets after ≈: the same amount, converted by molar mass. Activity calls are given as the source filed them. The rule behind the calls is not given here.

Legend:
[1] = test system: HepG2; assay: Induction of LDLR expression in human HepG2 cells by luminex assay; assay type: functional, cell-based
[2] = test system: HepG2; assay: Down regulation of PCSK9 expression in human HepG2 cells after 24 hrs by ELISA; assay type: functional, cell-based
[3] = test system: HepG2; assay: Up regulation of LDLR expression in human HepG2 cells after 24 hrs by ELISA; assay type: functional, cell-based
[4] = test system: HepG2; assay: Inhibition of PCSK9 secretion in human HepG2 cells by luminex assay; assay type: functional, cell-based
[5] = test system: HepG2; assay: Induction of LDL uptake in human HepG2 cells preincubated for 20 hrs followed by BODIPY-FL-LDL addition and measured after 5 hrs by Hoechst 33342 staining based microscopic analysis; assay type: functional, cell-based
[6] = test system: HepG2; assay: Induction of TRIB1 expression in human HepG2 cells measured after overnight incubation by qRT-PCR analysis; assay type: functional, cell-based
[7] = AUC (infinity) in C57BL/6 mouse liver at 10 mg/kg, ip administered as single dose by mass spectrometry; assay type: ADME, organism-based; set-up: dose 10 mg/kg, route intraperitoneal, time infinity; conditions: in vivo
[8] = Tmax in C57BL/6 mouse liver at 10 mg/kg, ip administered as single dose by mass spectrometry; assay type: ADME, organism-based
[9] = Half life in C57BL/6 mouse liver at 10 mg/kg, ip administered as single dose by mass spectrometry; assay type: ADME, organism-based
[10] = Unbound fraction in C57BL/6 mouse liver at 10 mg/kg, ip administered as single dose by mass spectrometry; assay type: ADME, organism-based
[11] = Solubility of the compound in 1% DMSO/phosphate buffered saline at pH 7.4 incubated for 18 hrs under shaking condition by UPLC/MS analysis; assay type: physicochemical
[12] = Half life in C57BL/6 mouse plasma at 10 mg/kg, ip administered as single dose by mass spectrometry; assay type: ADME, organism-based
[13] = Cmax in C57BL/6 mouse plasma at 10 mg/kg, ip administered as single dose by mass spectrometry; assay type: ADME, organism-based; set-up: dose 10 mg/kg, route intraperitoneal
[14] = Clearance in C57BL/6 mouse plasma at 10 mg/kg, ip administered as single dose by mass spectrometry; assay type: ADME, organism-based
[15] = test system: HepG2; assay: Up regulation of LDLR gene expression in human HepG2 cells measured after 6 hrs by qRT-PCR analysis; assay type: functional, cell-based; conditions: HepG2, 6 h
[16] = Stability in mouse liver microsomes assessed as parent compound remaining at 1 uM incubated for 60 mins under shaking condition by UPLC/MS analysis; assay type: ADME, Microsome; conditions: read-out: Stability
[17] = AUC (infinity) in C57BL/6 mouse plasma at 10 mg/kg, ip administered as single dose by mass spectrometry; assay type: ADME, organism-based; set-up: dose 10 mg/kg, route intraperitoneal, time infinity; conditions: in vivo
[18] = test system: HepG2; assay: Up regulation of LDLR gene expression in human HepG2 cells measured after 6 hrs by qRT-PCR analysis relative to control; assay type: functional
[19] = test system: HepG2; assay: Up regulation of TRIB1 gene expression in human HepG2 cells measured after 6 hrs by qRT-PCR analysis relative to control; assay type: functional
[20] = test system: HepG2; assay: Up regulation of TRIB1 gene expression in human HepG2 cells measured after 6 hrs by qRT-PCR analysis; assay type: functional, cell-based; conditions: HepG2, 6 h
[21] = test system: HepG2; assay: Down regulation of PCSK9 gene expression in human HepG2 cells measured after 24 hrs by qRT-PCR analysis; assay type: functional, cell-based; conditions: HepG2, 24 h
[22] = Tmax in C57BL/6 mouse plasma at 10 mg/kg, ip administered as single dose by mass spectrometry; assay type: ADME, organism-based
[23] = Apparent volume of distribution in C57BL/6 mouse plasma at 10 mg/kg, ip administered as single dose by mass spectrometry; assay type: ADME, organism-based; conditions: in vivo
[24] = Cmax in C57BL/6 mouse liver at 10 mg/kg, ip administered as single dose by mass spectrometry; assay type: ADME, organism-based; set-up: dose 10 mg/kg, route intraperitoneal
[25] = Apparent volume of distribution in C57BL/6 mouse liver at 10 mg/kg, ip administered as single dose by mass spectrometry; assay type: ADME, organism-based; conditions: in vivo
[26] = Toxicity in C57BL/6 mouse at 15 to 45 mg/kg, ip administered as single dose measured over 24 hrs; assay type: organism-based; conditions: in vivo
[27] = Drug uptake in C57BL/6 mouse at 15 to 45 mg/kg, ip administered as single dose measured at 8 to 12 hrs post dose by mass spectrometry; assay type: ADME, organism-based; conditions: in vivo

AUC [7]	Tmax [8]	half-life [9]	fraction unbound [10]	solubility kinetic at 18 h [11]	half-life [12]	Cmax [13]	CL/F [14]	EC50 [15]	remaining at 1 h, 1 µM [16]	AUC [17]	EC50 [20]	EC50 [21]	Tmax [22]	Vz [23]	Cmax [24]	Vz [25]	Compound	max activation [18]	max activation [19]	further results
–	–	–	–	–	–	–	–	–	–	–	–	–	–	–	–	–	CN1C(=O)c2cc(NC(=O)c3ccc(C(F)(F)F)cc3)ccc2OC[C@@H]2O[C@@H](CC(=O)NC3Cc4ccccc4C3)CC[C@@H]21	–	–	Activity [1]: Active; Activity [2]: Active; Activity [3]: Active; inhibition [4]: Active; Activity [5]: Active; EC50 [6]: 2030 nM
35928 µg/L/h	1 h	1.78 h	0.02	27.5 µM (≈ 16.1 µg/mL)	1.46 h	3050 ng/mL	25.8 mL/min/kg	1450 nM	18%	6464 µg/L/h	320 nM	95 nM	1 h	3.25 L/kg	13800 ng/mL	0.72 L/kg	CN1C(=O)c2cc(NC(=O)c3ccc(C(F)(F)F)cc3)ccc2OC[C@@H]2O[C@H](CNc3nnc(C4CCC4)o3)CC[C@@H]21	3.8	4.6	–
16803 µg/L/h	0.08 h	1.16 h	0.01	7 µM (≈ 3.95 µg/mL)	1.12 h	2310 ng/mL	46.2 mL/min/kg	170 nM	28%	3616 µg/L/h	80 nM	60 nM	0.5 h	4.48 L/kg	13100 ng/mL	0.99 L/kg	CC(C)COC(=O)NC[C@@H]1CC[C@H]2[C@H](COc3ccc(NC(=O)c4ccc(C(F)(F)F)cc4)cc3C(=O)N2C)O1	3.7	5.8	Activity [26]: Non-Toxic; Drug uptake [27]: Active
